This is an account of results in paper PMC5341695 (Biochemical pharmacology, 2016).

For orientation: Km means the concentration of substrate that gives half-maximal velocity.

Several values for one entry are separate records, joined by “and”; a condition that tells them apart may be missing. Equal entries are not always repeated. Where two headings read alike, the source gives them in different places.

Data set [1] addresses T1, mouse Pgp reconstituted in liposomes (Mus musculus, UniProt P21447). The settings on record: 3.2 mM (saturating) AMPPNP, no verapamil.
Data set [2] concerns the target mouse Pgp reconstituted into liposomes (Mus musculus, UniProt P21447).
Data set [3] deals with T1, mouse Pgp reconstituted in liposomes. Nature of the data set: AMPPNP-induced quenching of Pgp intrinsic tryptophan fluorescence.
The target of data set [4] is wild-type his-tagged mouse Pgp transporter reconstituted into liposomes (Mus musculus, UniProt P21447). Nature of the data set: Pgp-coupled ATPase activity.
[5] abbreviates: 3.2 mM AMPPNP, 1 µM Pgp, no verapamil.

`Nc1ncnc2c1ncn2[C@@H]1O[C@H](COP(=O)([O-])OP(=O)([O-])NP(=O)([O-])[O-])[C@@H](O)[C@H]1O.[Li+].[Li+].[Li+].[Li+]` [AMPPNP, Adenosine 5’-(β,γ-imido)triphosphate lithium salt] displayed a KSV acrylamide quenching in data set [1] of 0.97 ± 0.16 M⁻¹. In addition, in data set [2] (3.2 mM AMPPNP and 8 µM verapamil), the “decrease of average STDD amplification factor of AMPPNP” value came out at 15%. Besides, the “increase of average STDD amplification factors of AMPPNP” value in data set [2] (3.2 mM AMPPNP and 1 mM verapamil) is recorded as “more than 20%”. Further, in data set [2] (setting [5]), the “average STDD amplification factor for AMPPNP” value came to 63 ± 51; the “average STDD amplification factor, purine base” value is listed as 79 ± 64; the “average STDD amplification factor, ribose sugar” value is 40 ± 11. Besides, in data set [3] (37 °C, data not shown), the “K1 (low concentration phase)” value is 8 µM⁻¹ and the “K2 (high concentration phase)” value turned out to be 0.017 µM⁻¹. For the same compound, in data set [3] (fit to equation 6), the “K1 (low concentration phase, dynamic quenching)” value is on record as 6.66 +/− 3.41 µM ^−1; the “K2 (high concentration phase, static quenching)” value was 0.022 +/− 0.006 µM ^−1; the “fraction quenched, high concentration phase (FH/F0)” value came to 0.074; the “fraction quenched, low concentration phase (FL/F0)” value worked out at 0.16. In addition, the Kd in data set [3] (read-out: KD of AMPPNP for Pgp, from high concentration (static) quenching phase) came out at 45 µM. In addition, the “decrease of Pgp tryptophan fluorescence” value in data set [3] (saturating AMPPNP concentration, 1 µM Pgp) is “about 15%”.

Turning to `Nc1ncnc2c1ncn2[C@@H]1O[C@H](COP(=O)(O)OP(=O)([O-])OP(=O)([O-])O)[C@@H](O)[C@H]1O.[Na+].[Na+]` [ATP, Disodium ATP], the “VMAX basal Pgp ATPase activity” value in data set [4] (ATP titration in the absence of verapamil, Equation 1) worked out at 619 ± 18 nmol/min/mg. Moreover, the “increase of ATP affinity in the presence of two bound verapamil molecules” value in data set [4] (COPASI fit, KD5 versus KD3, saturating verapamil) is ~ 4 fold and 4 fold. For the same compound, the “Vmax0 (basal ATPase activity, E-ATP)” value in data set [4] (COPASI fit, average over […]-3.2 mM ATP) was found to be 672 ± 93 nmol/min/mg. In data set [4] (no verapamil), the “VMAX of Pgp-coupled ATPase with ATP alone (discussion)” value was 500 to 700 nmol/min/mg. The Kd in data set [4] (read-out: KD4 (ATP to EV, one bound verapamil), COPASI fit, 0.5 mM ATP data set) was determined as 1490 µM; in data set [4] (read-out: KD4 (ATP to EV, one bound verapamil), COPASI fit, 1 mM ATP data set), 1340 µM; in data set [4] (read-out: KD4 (ATP to EV, one bound verapamil), COPASI fit, 2 mM ATP data set), 1030 µM; in data set [4] (read-out: KD4 (ATP to EV, one bound verapamil), COPASI fit, 3.2 mM ATP data set), 1000 µM; in data set [4] (read-out: KD4 (ATP to EV, one bound verapamil), COPASI fit, […] ATP data set), 1350 µM; in data set [4] (read-out: KD5 (ATP to EVV, two bound verapamil), COPASI fit, 3.2 mM ATP data set) it was 210 µM. The Km in data set [4] (read-out: Km for ATP in the presence of Na3VO4, 200 µM Na3VO4, range of ATP concentrations, Equation 1) is 906 ± 476 µM.

As to `[Na+].[Na+].[Na+].[O]=[V]([O-])([O-])[O-]` [Na3VO4, sodium orthovanadate], the “mode of inhibition of Pgp-mediated ATP hydrolysis” value in data set [4] (200 µM) is on record as “non-competitive inhibitor”. Also, in data set [4] (200 µM Na3VO4, range of ATP concentrations, Equation 1), the “VMAX Pgp ATPase activity in the presence of Na3VO4” value was 172 ± 24 nmol/min/mg. In data set [4] (difference in VMAX without and with 200 µM Na3VO4), the “Na3VO4 sensitive VMAX for Pgp” value was 447 ± 30 nmol/min/mg.
